Source: US20110053934A1, “COMPOUNDS AND METHODS OF TREATMENT” (GLAXOSMITHKLINE LLC, priority 2007, published 2011)
Where two headings read alike, the source gives them in different places.

Key:
c-src = c-src (Homo sapiens, UniProt P12931); assay: c-src kinase inhibition; type: biochemical; settings: read-out: c-src, range of activity, pIC50 values (converted)
[1] = biological target: T1, ret kinase (intracellular portion of ret, amino acids 713-1072 of the short isoform) (Homo sapiens, UniProt P07949); assay: Ret kinase enzyme assay; type: biochemical
T1 sequence (P07949 713-1072 isoform P07949-2): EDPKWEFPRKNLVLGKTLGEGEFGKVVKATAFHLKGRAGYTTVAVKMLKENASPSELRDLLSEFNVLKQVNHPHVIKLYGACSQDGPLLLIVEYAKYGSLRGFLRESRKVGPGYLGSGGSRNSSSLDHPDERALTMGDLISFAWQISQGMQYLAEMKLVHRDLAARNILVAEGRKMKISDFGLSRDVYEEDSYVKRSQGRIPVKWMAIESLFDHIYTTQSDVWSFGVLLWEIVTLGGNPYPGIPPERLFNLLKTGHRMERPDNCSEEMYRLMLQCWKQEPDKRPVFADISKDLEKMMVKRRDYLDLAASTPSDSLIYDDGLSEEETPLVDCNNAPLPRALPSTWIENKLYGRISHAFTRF
Method: The ret kinase assay used the intracellular portion of ret (amino acids 713-1072 of the short isoform) produced in SF9 insect cells and purified on a nickel column. The assay was performed in a 45 μL volume with increasing concentrations of tyrosine kinase inhibitor (TKI) in triplicate in a 96-well plate format as follows: • 4.5 μL 500 mM Morpholinopropanesulfonic acid, pH 7.4 • 4.5 μL 100 μM adenosine triphosphate • 4.5 μL 250 mM MgCl2 • 1.0 μL γ-ATP^33 (1 microCi)(3000 Ci/mMol) • 2.04 (5 mg/ml) poly Glutamic acid-Tyrosine (Sigma (P-0275)) • 234H20 • 1.04 recombinant ret (100 ng) • 4.5 μL 10× Tyrosine kinase inhibitor
The components were incubated in triplicate for 30 minutes at room temperature within a 96-well plate in triplicate. The reaction was stopped by adding 45 μL 0.5% H3PO4 to each well. 75 μL of the reaction mixture was spotted onto phosphocellulose paper (Millipore, cat #MAPHN0B50) and was washed 3 times with 2004 0.5% H3PO4. Each phosphocellulase filter was transferred into a separate scintillation vial, 1 ml cytoscint fluid was added, and the sample counted on a Packard 1900TR liquid scintillation analyzer for 1 minute.
Concentrations of Example 1 tested in the ret enzyme kinase assay to determine the IC50 were 0, 0.5, 1, 5, 10, 50, 100, and 250 nM.

VEFGR2 = VEFGR2 (Homo sapiens, UniProt P35968); assay: VEFGR2 kinase inhibition; type: biochemical; settings: read-out: VEFGR2, range of activity, pIC50 values (converted)
Sequence of VEFGR2 (P35968 20-1356): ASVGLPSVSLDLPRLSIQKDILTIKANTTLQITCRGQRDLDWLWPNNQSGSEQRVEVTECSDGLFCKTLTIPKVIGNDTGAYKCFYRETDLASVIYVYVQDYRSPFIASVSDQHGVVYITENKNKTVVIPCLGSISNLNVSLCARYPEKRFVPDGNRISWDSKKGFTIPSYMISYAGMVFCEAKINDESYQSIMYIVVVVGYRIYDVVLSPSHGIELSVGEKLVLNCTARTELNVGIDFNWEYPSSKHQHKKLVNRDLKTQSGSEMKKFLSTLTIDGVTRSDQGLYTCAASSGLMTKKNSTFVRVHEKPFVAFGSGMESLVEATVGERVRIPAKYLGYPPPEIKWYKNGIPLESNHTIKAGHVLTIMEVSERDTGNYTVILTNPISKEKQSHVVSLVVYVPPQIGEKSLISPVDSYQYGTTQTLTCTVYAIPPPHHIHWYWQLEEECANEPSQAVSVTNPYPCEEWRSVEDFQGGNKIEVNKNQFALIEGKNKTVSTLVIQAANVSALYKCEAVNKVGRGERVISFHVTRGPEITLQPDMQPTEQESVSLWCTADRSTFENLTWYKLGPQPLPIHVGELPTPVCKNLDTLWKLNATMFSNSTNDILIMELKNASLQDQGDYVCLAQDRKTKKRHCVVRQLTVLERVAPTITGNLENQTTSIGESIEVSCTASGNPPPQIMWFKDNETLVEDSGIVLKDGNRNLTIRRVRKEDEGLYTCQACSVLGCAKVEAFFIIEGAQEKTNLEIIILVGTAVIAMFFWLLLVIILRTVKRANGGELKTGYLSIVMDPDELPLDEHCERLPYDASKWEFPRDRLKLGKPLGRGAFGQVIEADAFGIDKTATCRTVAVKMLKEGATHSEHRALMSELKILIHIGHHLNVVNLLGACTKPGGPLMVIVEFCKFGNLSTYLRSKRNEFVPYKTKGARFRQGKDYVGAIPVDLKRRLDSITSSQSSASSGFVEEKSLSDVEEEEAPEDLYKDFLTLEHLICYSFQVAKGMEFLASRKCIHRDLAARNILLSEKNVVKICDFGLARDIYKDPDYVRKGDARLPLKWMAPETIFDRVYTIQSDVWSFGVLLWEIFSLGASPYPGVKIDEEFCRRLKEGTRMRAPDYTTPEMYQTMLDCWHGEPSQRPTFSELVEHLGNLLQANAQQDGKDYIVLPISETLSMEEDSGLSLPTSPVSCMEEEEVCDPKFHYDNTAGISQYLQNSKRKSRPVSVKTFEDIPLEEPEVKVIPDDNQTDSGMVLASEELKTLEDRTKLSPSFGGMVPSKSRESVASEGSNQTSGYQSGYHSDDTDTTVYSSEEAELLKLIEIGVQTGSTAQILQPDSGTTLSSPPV

[2] = tested on: TT cells, a medullary thyroid cancer cell line with constitutively activated ret; assay: MTT assay, TT cell proliferation; type: cell-based; settings: Homo sapiens, 168 hours with compound
Method: The potency of the compound of the invention was tested for its ability to inhibit cell proliferation and cell viability.

[3] = ret kinase enzyme assay, read-out: Ret, range of activity, pIC50 values (converted)

Sequence of c-src (P12931 whole entry, species assumed, the tested form may be a part, canonical isoform): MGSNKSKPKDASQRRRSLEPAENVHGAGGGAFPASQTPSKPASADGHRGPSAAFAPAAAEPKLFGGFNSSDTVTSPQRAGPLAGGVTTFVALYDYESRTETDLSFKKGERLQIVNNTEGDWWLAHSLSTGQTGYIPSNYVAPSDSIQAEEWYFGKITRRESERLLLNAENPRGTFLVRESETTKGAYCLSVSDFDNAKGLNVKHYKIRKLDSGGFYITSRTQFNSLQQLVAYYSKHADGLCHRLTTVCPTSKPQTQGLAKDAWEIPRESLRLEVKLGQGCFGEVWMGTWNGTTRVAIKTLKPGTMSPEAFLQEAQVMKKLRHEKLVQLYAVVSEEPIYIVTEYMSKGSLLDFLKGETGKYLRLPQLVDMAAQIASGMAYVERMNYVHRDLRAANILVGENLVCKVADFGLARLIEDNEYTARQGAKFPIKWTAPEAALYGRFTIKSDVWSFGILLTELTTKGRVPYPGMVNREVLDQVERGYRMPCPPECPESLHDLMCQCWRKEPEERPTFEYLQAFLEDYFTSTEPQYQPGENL

Oc1cccc(Nc2ccnc3cc(-c4ccccn4)ccc23)c1 [Example 1, 3-{[7-(2-pyridinyl)-4-quinolinyl]amino}phenol]
IC50 (c-src): < 10 nM
IC50 [1, 3]: < 10 nM

Oc1cc(Nc2ccnc3cc(-c4cc5ccccc5o4)ccc23)ccc1Br [Example 3, 5-{[7-(1-benzofuran-2-yl)-4-quinolinyl]amino}-2-bromophenol]
IC50 (VEFGR2): < 10 nM
IC50 (c-src): 10 to 100 nM
IC50 [1, 3]: 10 to 100 nM

Oc1cc(Nc2ccnc3cc(-c4cccc(CNCCN5CCOCC5)c4)ccc23)c(F)cc1Cl [Example 4, 2-chloro-4-fluoro-5-({7-[3-({[2-(4-morpholinyl)ethyl]amino}methyl)phenyl]-4-quinolinyl}amino)phenol]
IC50 (VEFGR2): < 10 nM
IC50 (c-src): < 10 nM
IC50 [1]: 10 to 100 nM

CS(=O)(=O)c1ccc2nccc(Nc3cc(O)c(F)cc3Cl)c2c1 [Example 6, 4-chloro-2-fluoro-5-{[6-(methysulfonuyl)-4-quinolinyl]amino}phenol]
IC50 [2]: < 1000 nM
IC50 [1, 3]: < 10 nM

OCc1nc(-c2ccc3c(Nc4cc(O)c(F)cc4Cl)ccnc3c2)cs1 [Example 7, 4-chloro-2-fluoro-5-({7-[2-(hydroxymethyl)-1,3-thiazol-4-yl]-4-quinolinyl}amino)phenol]
IC50 (c-src): < 10 nM
IC50 [1, 3]: 10 to 100 nM

Cc1ccc(O)cc1Nc1ccnc2ccc(C(=O)NC(C)C)cc12 [Example 10]
IC50 (VEFGR2): 100 to 1000 nM
IC50 [1, 3]: 10 to 100 nM
